Assay in all cases: DTP human tumour cell line panel, 48 h
Assay [1] deals with K-562 leukemia.
Assay [2] has as its system HOP-62 NSCLC.
In assay [3] the test system is 786-0 renal.
Assay [4] deals with SNB-19 CNS.
The subject of assay [5] is SF-268 CNS.
The subject of assay [6] is SF-539 CNS.
The subject of assay [7] is UO-31 renal.
Assay [8] deals with OVCAR-8 ovarian.
The test system of assay [9] is NCI-H522 lung.
The subject of assay [10] is DU-145 prostate.

Values joined by “and” are separate entries in the source; they are usually repeats but may differ in a detail not shown here. Identical values can stand only once.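 How tested: cells in 96-well plates exposed to compound for 48 hours at five concentrations. Abbreviation: GI50, concentration required for 50% inhibition of growth. The concentration for full growth arrest is given as TGI.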 A value given as a limit tells only on which side of the number the result lay.

Turning to `COc1cc(NC2CCCCC2O)c2nc(-c3ccc(Cl)cc3)ccc2c1` (stereo unspecified), the GI50 in assay [1] is 2.82 µM; in assay [2], 5.96 µM; in assay [3], 5.23 µM; in [4] it was 21.7 µM; in [5] it was 9.68 µM; in [6] it was 10.5 µM. Also, the GI50 in [7] was 6.31 µM; in assay [8] it was 12.2 µM; in [9], 4.83 µM; in assay [10], 12.7 µM. Moreover, the TGI in assay [1] was 18.4 µM; in [2], 46.7 µM; in assay [3], 18.6 µM; in assay [4], more than 100 µM; in assay [5], more than 100 µM; in assay [6], 51.4 µM. In addition, the TGI in assay [7] is 88.5 µM; in assay [8], more than 100 µM; in assay [9] it was more than 100 µM; in assay [10] it was 58 µM.
With `O=C(O)CCCCC1CCSS1` (stereo unspecified), the TGI in assay [1], in [2], in assay [3], in assay [4], in assay [5] and in assay [6] was more than 100 µM in each case. The TGI in [7], in assay [8], in assay [9] and in assay [10] was more than 100 µM throughout.
Consider `COc1ccc(C2=Nn3c(nnc3-n3nc(C)cc3C)SC2)cc1`, for which the GI50 in assay [1] is 0.0351 µM; in [2], 0.0839 µM; in [3], 0.146 µM; in assay [4], 0.0831 µM; in assay [5], 0.0806 µM; in assay [6] it was 0.023 µM. The GI50 in assay [7] is 0.212 µM; in [8], 0.0691 µM; in assay [9] it was 0.031 µM; in assay [10], 0.04 µM. Besides, the concentration for total growth inhibition (TGI) in assay [1] is more than 100 µM; in assay [2], more than 100 µM; in assay [3], more than 100 µM; in assay [4], more than 100 µM; in assay [5], more than 100 µM; in assay [6], 0.0594 µM. For the same molecule, the TGI in assay [7] was more than 100 µM; in assay [8], more than 100 µM; in [9] it was 0.529 µM; in assay [10], 1.25 µM.
Turning to `CC(=O)OCC1OC(n2c3c(cc(C#N)c2=S)CCCC3)C(OC(C)=O)C(OC(C)=O)C1OC(C)=O` (stereo unspecified), the GI50 in assay [1] was 24.1 µM and > 100 µM; in assay [2] it was 83.3 µM and 19.9 µM; in [3] it was > 100 µM and 26.9 µM; in [4], > 100 µM and 21.5 µM; in assay [5] it was > 100 µM and 22.9 µM; in [6], > 100 µM and 48.1 µM. Further, the TGI in assay [1] was 68 µM and > 100 µM; in assay [2], > 100 µM and 51.5 µM; in [3], more than 100 µM; in [4] it was > 100 µM and 54.4 µM; in assay [5], more than 100 µM; in assay [6], more than 100 µM. Moreover, the TGI in assay [7] is more than 100 µM; in assay [8], more than 100 µM; in [9], > 100 µM and 98.7 µM; in assay [10] it was more than 100 µM.
With `COc1ccc(-c2csc(Nc3cccc(-c4csc(C)n4)c3)n2)cc1`, the GI50 in [1] is 0.137 µM; in assay [2], 2.81 µM; in [3], 2.14 µM; in assay [4], 1.04 µM; in [5], 2.48 µM; in assay [6], 1.57 µM. For the same molecule, the GI50 in assay [7] is 2.54 µM; in assay [8] it was 2.27 µM; in assay [9], 1.23 µM; in assay [10], 2.14 µM. The TGI in assay [1] was 0.507 µM; in assay [2] it was more than 33.8 µM; in assay [3], more than 34.8 µM; in assay [4], more than 50 µM; in assay [5], more than 50 µM; in [6] it was 8.27 µM. Further, the TGI in assay [7] was more than 50 µM; in assay [8], more than 31.2 µM; in assay [9] it was more than 16.4 µM; in [10], more than 50 µM.
Regarding `Cc1cc(S(N)(=O)=O)c(S/C(=N\NS(=O)(=O)c2ccccc2)c2ccc(Cl)cc2)cc1Cl`, the GI50 is 59 µM in assay [1]; more than 100 µM in assay [2]; more than 100 µM in [3]; more than 100 µM in assay [4]; more than 100 µM in assay [5]; more than 100 µM in [6]. In addition, the GI50 in assay [7] was more than 100 µM; in assay [8], more than 100 µM; in assay [9], 23.2 µM; in assay [10], more than 100 µM. For the same molecule, the concentration for total growth inhibition (TGI) in [1], in assay [2], in assay [3], in assay [4], in assay [5] and in assay [6] was more than 100 µM throughout. The TGI was more than 100 µM in [7], more than 100 µM in assay [8], 87.7 µM in assay [9] and more than 100 µM in assay [10].

(Values after PubChem BioAssay (NCI).)
